Laboratory results reported in patent US20240000948A1, “METHODS FOR TREATING EYE DISEASES USING LIPID BINDING PROTEIN-BASED COMPLEXES” (ABIONYX PHARMA SA, priority 2020, published 2024).
Where two headings read alike, the source gives them in different places.

Tests used:
[1] = CER-001 as carrier for ophthalmic drugs: appearance of samples after thermal cycling; format: physicochemical
Protocol: (§1) A solution of CER-001 was mixed with azithromycin to provide a final azithromycin concentration of 10 mg/ml and subjected to five heating and cooling cycles from 37° C. to 55° C. to promote complexation of azithromycin to CER-001. For controls, a sample of CER-001 without added azithromycin and a sample of azithromycin at a concentration of 10 mg/ml in phosphate buffered saline (PBS) were similarly subjected to five heating and cooling cycles from 37° C. to 55° C.
as §1, with “spironolactone” for “azithromycin”, “1.5” for “10”
as §1, with “cyclosporine” for “azithromycin”, “1” for “10”

[2] = tested on: vision impairment related to LCAT deficiency (ocular lipid deposits); assay: CER-001 therapy for LCAT deficiency-related vision impairment; format: in vivo, human
Protocol: A subject with LCAT deficiency and having vision impairment related to the subject's LCAT deficiency (said vision impairment being due to ocular lipid deposits) was administered CER-001 according to a treatment regimen comprising an induction regimen, a consolidation regimen, and a maintenance regimen.
Prior to treatment with CER-001, the subject had ocular lipid deposits presenting as white corneal ring opacities. The subject had normal visual acuity but visual blur, especially at night. […] Next-generation sequencing confirmed the subject as compound-heterozygous for two LCAT gene variations, but none in the ABCA1 or APOA1 genes. The first allele, motherly inherited, is an exon-5 (c.605T>C) missense mutation p.(Ile202Thr), previously well-established as familial LCAT deficiency (FLD)-causing in Europe. The paternal allele (c.154+5G>C), was novel and absent from general referral population databases. It alters a highly evolutionary-conserved residue of intron-1 donor splice-site, thereby potentially altering exon-1 mRNA-splicing and creating a cryptic acceptor splice-site at position c.154+15. […]
The induction regimen comprised nine doses of CER-001 administered over three weeks. The dose of CER-001 administered in the […] regimen was 10 mg/kg, calculated based upon the amount of ApoA-I in the CER-001 administered and the weight of the subject.
Following the induction regimen, the subject was administered CER-001 according to a consolidation regimen comprising seven doses of CER-001 administered over four weeks. The dose of CER-001 administered in the […] regimen was 10 mg/kg, calculated based upon the amount of ApoA-I in the CER-001 administered and the weight of the subject.
Following the consolidation regimen, the subject was administered CER-001 according to a maintenance regimen comprising once a week administration of CER-001 for three weeks. The dose of CER-001 administered in the maintenance regimen was 10 mg/kg calculated based upon the amount of ApoA-I in the CER-001 to be administered and the weight of the subject. […]

eyes of albino rabbits = format: in vivo; conditions: for ocular tolerance: albino rabbits, CER-001 8 mg/ml (protein weight basis)
[3] = tested on: endotoxin-induced uveitis (severe inflammation); format: in vivo; conditions: albino rabbits
Protocol: CER-001 vehicle and Solu-Medrol®, an injectable formulation containing the anti-inflammatory glucocorticoid methylprednisolone sodium succinate, were included as controls. Tolerance was assessed by the McDonald-Shadduck scoring system (see, Eaton et al., Journal of Ocular Pharmacology and Therapeutics 33(10):718-734) 6 and 24 hours after administration. Cell infiltration and protein content in the aqueous humor were measured 24 hours after administration.

With CC[C@H]1OC(=O)[C@H](C)[C@@H](O[C@H]2C[C@@](C)(OC)[C@@H](O)[C@H](C)O2)[C@H](C)[C@@H](O[C@@H]2O[C@H](C)C[C@H](N(C)C)[C@H]2O)[C@](C)(O)C[C@@H](C)CN(C)[C@H](C)[C@@H](O)[C@]1(C)O [azithromycin, reference compound] the “appearance of sample following the heating and cooling cycles” value (“appearance” below) ([1]; azithromycin 10 mg/ml in PBS, five cycles 37° C. to 55° C., FIG. 1A) was “contained numerous crystals in the liquid and on the glass tube”.

For CC(=O)S[C@@H]1CC2=CC(=O)CC[C@]2(C)[C@H]2CC[C@@]3(C)[C@@H](CC[C@@]34CCC(=O)O4)[C@H]12 [spironolactone, reference compound], the “appearance” value ([1]; spironolactone 1.5 mg/ml in PBS, five cycles 37° C. to 55° C., FIG. 1B) was “contained numerous crystals in the liquid, on the glass tube, and above the meniscus”.

For “CER-001: lipoprotein complex of ApoA-I and phospholipids, 1:2.7 lipoprotein weight:total phospholipid weight ratio, SM:DPPG weight ratio 97:3”, the “appearance” value ([1]; CER-001 without added drug, five heating and cooling cycles from 37° C. to 55° C.) was “remained clear”, the “complexation with ophthalmic drugs (summary of Example 1)” value ([1]; thermal cycling 37° C. to 55° C.) was “can complex with azithromycin, spironolactone, dexamethasone palmitate, and cyclosporine” and the “visual blur at the end of the follow-up period” value ([2]; end of 3 months off-treatment follow-up) was “did not recur”. For the same compound, the “effect of administration on vision” value ([2]; one subject with LCAT deficiency, IV infusion 10 mg/kg, later 20 mg/kg, 5 months treatment) was “normalization of vision”, the “subject's vision during treatment” value ([2]; one subject with LCAT deficiency, IV infusion 10 mg/kg, later 20 mg/kg, induction, consolidation, maintenance, 5 months treatment) was “improved during the course of treatment” and the ocular tolerance (eyes of albino rabbits; repeated topical administration of up to 8 drops) was “No tolerance issues were observed”. The ocular tolerance (eyes of albino rabbits; single intravitreal administration) was “No tolerance issues were observed”, the “ocular tolerance (statement referring to Examples 3 and 4)” value (eyes of albino rabbits; even with repeated administrations) was “good ocular tolerance” and the “cell infiltration in the aqueous humor” value ([3]; 24 hours after administration, FIG. 3A) was “positive effect”. For the same compound, the “protein in the aqueous humor” value ([3]; 24 hours after administration, FIG. 3B) was “positive effect” and the “tolerance (McDonald-Shadduck scoring system)” value ([3]; single intravitreal administration, including 8 mg/ml, 6 and 24 hours, FIGS. 2A-2C) was “induced significant tolerance”.
